In patent US20230278972A1, “SUBSTITUTED HALOALKYL SULFONANILIDE HERBICIDES” (FMC Corporation, priority 2020, published 2023):

Experiments:
Format in all cases: in vivo
[1] = tested on: Ryegrass, Italian (Italian ryegrass, Lolium multiflorum); assay: Test A1 preemergence, Ryegrass, Italian
In short: (§1)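 Pre: seeds in loam/sand blend, directed soil spray. Post: potted plants, same soil, 2–10 cm, 1–2 leaf stage. Chemicals in non-phytotoxic solvent + surfactant for both.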

[2] = tested on: Ryegrass, Italian (Italian ryegrass, Lolium multiflorum); assay: Test A1 postemergence, Ryegrass, Italian; settings: for Plant response rating, Ryegrass, Italian: Postemergence; for Ryegrass, Italian plant response rating: postemergence
In short: (§2)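 Plants were grown in a loam soil/sand blend, with test chemicals formulated in a non-phytotoxic solvent mixture containing surfactant. Preemergence treatment (corn) was a directed soil spray at planting. Postemergence treatment was applied to plants 2 to 10 cm tall at the one- to two-leaf stage.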

[3] = tested on: horseweed (Erigeron canadensis); assay: Test A1 postemergence, horseweed; settings: for Plant response rating, Horseweed: Postemergence
In short: as §2

[4] = tested on: Oat, Wild (wild oat, Avena fatua); assay: Test A1 postemergence, Oat, Wild; settings: for Plant response rating, Oat, Wild: Postemergence; for Oat, Wild plant response rating: postemergence
In short: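 Postemergence species (ragweed, Palmer pigweed, wild oat) were sprayed at one- to two-leaf stage, 2 to 10 cm tall. Corn was treated preemergence by directed soil spray. Both used a loam soil/sand blend and compounds in a non-phytotoxic solvent mixture with surfactant.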

[5] = tested on: kochia (Bassia scoparia); assay: Test A1 postemergence, kochia; settings: for Plant response rating, Kochia: Postemergence; for Kochia plant response rating: postemergence
In short: as §2

[6] = tested on: kochia (Bassia scoparia); assay: Test A1 preemergence, kochia
In short: as §1

[7] = 31 g ai/ha, 0 to 100 scale (0 no effect, 100 complete control)
[8] = 125 g ai/ha, 0 to 100 scale, 0 no effect, 100 complete control
[9] = 31 g ai/ha, 0 to 100 scale (0 no effect, 100 complete control), 10 days
[10] = 125 g ai/ha, 0 to 100 scale (0 no effect, 100 complete control), 10 days

Structure (SMILES)	Plant response rating, Ryegrass, Italian [1, 7]	Plant response rating, Ryegrass, Italian [1, 8]	Plant response rating, Ryegrass, Italian [2, 9]	Plant response rating, Ryegrass, Italian ([2]; 125 g ai/ha, 0 to 100 scale)	Plant response rating, Horseweed [3, 9]	Plant response rating, Horseweed ([3]; 125 g ai/ha, 0 to 100 scale)	Plant response rating, Oat, Wild [4, 9]	Plant response rating, Oat, Wild ([4]; 125 g ai/ha, 0 to 100 scale)	Plant response rating, Kochia [5, 9]	Plant response rating, Kochia ([5]; 125 g ai/ha, 0 to 100 scale)	Plant response rating, Kochia [6, 7]	Plant response rating, Kochia [6, 8]	Ryegrass, Italian plant response rating [2, 7]	Oat, Wild plant response rating [4, 7]	Kochia plant response rating [5, 7]	Plant response rating, Ryegrass, Italian [2, 10]	Horseweed plant response rating ([3]; 31 g ai/ha, postemergence, 0 to 100 scale (0 no effect, 100 complete control))	Plant response rating, Horseweed [3, 10]	Plant response rating, Oat, Wild [4, 10]	Plant response rating, Kochia [5, 10]
COc1cnn(-c2cc(NS(=O)(=O)C(F)(F)F)c(C)cc2C)c(=O)c1OC [Compound 282]	0	40	30	60	50	80	0	50	10	30	0	80								
Cc1cc(C)c(N(C(=O)OCC(C)C)S(=O)(=O)C(F)(F)F)cc1C1=NOC2CCCC12 (centres unmarked) [Compound 299]	50	60	30	50	0	30	0	0	0	20	0	50								
CCOC(=O)N(c1cc(C(=O)N2CCCCC2)c(C)c(C)c1C)S(=O)(=O)C(F)(F)F [Compound 330, Ethyl N-[(trifluoromethyl)sulfonyl]-N-[2,3,4-trimethyl-5-(1-piperidinylcarbonyl)phenyl]carbamate]	0	90	0	0	80	90	0	10	10	50	10	40								
CCC1CC(c2cc(NS(=O)(=O)C(F)(F)F)c(C)cc2C)=NO1 (centres unmarked) [Compound 375]	30	80		40		50		0		60	0	70	0	0	0					
Cc1c(NS(=O)(=O)C(F)(F)F)cc(C(=O)N2CCC(Cl)CC2)c(C)c1C [Compound 356]	0	40	20	30	50	80	0	10	10	50	0	30								
Cc1cc(C)c(N2CCC3(CCC(C)CC3)C2=O)cc1NS(=O)(=O)C(F)(F)F (centres unmarked) [Compound 402]	90	100									0	30	0	10	10	0	20	50	10	50
Cc1c(C(=O)N2CCCCC2)cc(NS(=O)(=O)C(F)(F)F)c(Cl)c1F [Compound 333]	30	50	0	0	0	30	0	10	30	70	20	80								
Cc1cc(C2CC2)c(NS(=O)(=O)C(F)(F)F)cc1C1=NOC2(CCCC2)C1 [Compound 313]	30	50	0	0	0	0	0	0	0	20	0	0								
Cc1c(C(=O)N2CCC(F)CC2)cc(N(COC(=O)C(C)(C)C)S(=O)(=O)C(F)(F)F)c(C)c1C [Compound 361]	0	0	0	0	70	90	0	20	0	50	0	30								
Cc1c(C(=O)N(C)C)cc(NS(=O)(=O)C(F)(F)F)c(Cl)c1F [Compound 320]	90	90	0	40	50	70	0	0	30	70	20	50								
Cc1cc(C)c(N(C(=O)OC(C)C)S(=O)(=O)C(F)(F)F)cc1C1=NOC2CCCC12 (centres unmarked) [Compound 295]	40	70	0	30	10	50	0	0	0	30	0	30								
Cc1cc(C2CC2)c(C2=NOC3CCCC23)cc1NS(=O)(=O)C(F)(F)F (centres unmarked) [Compound 307]	50	100	20	80	30	80	0	20	0	30	0	10								
Cc1cc(C)c(N(COC(=O)C(C)(C)C)S(=O)(=O)C(F)(F)F)cc1C1=NOC2OCCC12 (centres unmarked) [Compound 352]	20	100	0	90	80	100	0	20	50	70	30	100								
Cc1cc(C)c(N(COC(=O)C(C)(C)C)S(=O)(=O)C(F)(F)F)cc1C(=O)N1CCC(c2ccccc2)CC1 [Compound 364]	0	0	0	0	0	0	0	0	0	30	0	0								
Cc1c(NS(=O)(=O)C(F)(F)F)cc(C(=O)N2CCC(F)(F)CC2)c(C)c1C [Compound 357]	0	30	20	20	20	80	0	0	0	30	20	40								
COc1cc(C)c(NS(=O)(=O)C(F)(F)F)cc1C1=NOC2CCCC12 (centres unmarked) [Compound 312]	0	40	0	20	0	20	0	20	0	0	0	0								
Cc1c(C(=O)N2CCC(Cl)CC2)cc(N(COC(=O)C(C)(C)C)S(=O)(=O)C(F)(F)F)c(C)c1C [Compound 359]	0	0	0	0	50	80	0	0	30	40	0	0								
Cc1cc(C2CC2)c(C2=NOC3CCCC23)cc1N(COC(=O)C(C)(C)C)S(=O)(=O)C(F)(F)F (centres unmarked) [Compound 355]	20	30	30	40	70	70	0	10	0	50	0	0								
Cc1c(NS(=O)(=O)C(F)(F)F)cc(C(=O)N(C)C)c(C)c1Cl [Compound 287]	70	90	0	60	20	40	0	0	0	10	20	60								
